We go through 2 compounds from US20230149421A1, “MEDICAMENT FOR PREVENTING OR TREATING IRRITABLE BOWEL SYNDROME OR INFLAMMATORY BOWEL DISEASE” (priority 2020, published 2023).

Holding throughout (assay type): in vivo, Sprague-Dawley rats
Assay [1] deals with caspase-1. The experiment in a line: Caspase-1 expression in colonic tissue (western blotting), DNBS-induced colitis model. The conditions noted are these: DNBS rats; 10 mg/kg oral. On the procedure:
(§1) The induction of colitis was performed according to the method in Antonioli L, et al. (Non Patent Literature 8). 15 mg of 2,4-dinitrobenzenesulfonic acid (DNBS) in 0.25 ml of 50% ethanol was rectally administered through a polyethylene PE-60 catheter inserted 8 cm proximal to the anus, during a short period of anesthesia by Isoflurane (manufactured by Abbott Laboratories). To the control rat, 0.25 ml of 50% ethanol was administered.
Sample preparation and a test method were performed by the same methods as those in Example 7.
Samples were prepared and a test was performed in the same manner as in Example 7, except that an anti-procaspase-1 antibody and an anti-caspase antibody (all ad1872, manufactured by Abcam plc., dilution 1: 1,000) were used as the antibodies, instead of the anti-occludin antibody.
Sample preparation and a test method were performed by the same methods as those in Example 8.
(Immunoblotting shows a protein as a band on a membrane.)

In assay [2] the test system is DNBS-induced colitis model. The experiment in a line: Change in body weight and spleen weight in DNBS-induced colitis model. To be noted: DNBS rats; for change in body weights: 3, 10 and 30 mg/kg oral immediately after DNBS, 6 days; for spleen weights compared to DNBS-induced colitis model: test compound groups (3, 10, 30 mg/kg) oral. The protocol: Sprague-Dawley rats (body weights of 200 to 225 g) which were male albino rats were used as model animals. Three model animals were housed in one cage in a temperature-controlled environment at 22-24° C., 50-60% humidity, and a light cycle of 12 hours, were given ad libitum access to standard laboratory feed and tap water, and were not used for at least one week after being brought into the laboratory.
A model in which colitis was induced by 2,4-dinitrobenzenesulfonic acid (hereinafter, denoted as DNBS, manufactured by Sigma-Aldrich, Inc.) (in the present specification, referred to as a “DNBS-induced colitis model”) was prepared.
as §1
Food intake was monitored everyday since initiation of the drug therapy. Furthermore, body weights of the rats were measured every morning, and evidence of blood in diarrhea and a stool or rectal bleeding was examined during the experimental period.

Assay [3] deals with DNBS-induced colitis model. The experiment in a line: Microscopic (histological) damage score of colonic tissue in DNBS-induced colitis model. The conditions noted are these: DNBS rats, 6 days; for histological damage in colonic tissues compared to DNBS-induced colitis model: test compound groups (3, 10, 30 mg/kg) oral. The protocol:
as §1
(§2) The DNBS-induced colitis model and the control rats were euthanized in a CO2 chamber. After death, mid-abdominal incision was performed, and the colon was excised, which was then opened in a longitudinal direction (longitudinal muscle direction), washed with sterile physiological saline, and split into two parts in the longitudinal direction.
Evaluation of microscopic damage and inflammation was performed with an optical microscope using a tissue section obtained from a specimen of the entire intestine and stained with hematoxylin/eosin. Evaluation of severity of enteritis was performed by scoring the microscopic damage (histological damage) of the samples. As described above, colonic tissues that had been excised and washed with physiological saline were used as the samples.
The scoring was performed according to the criteria determined by making a minor amendment on the criteria reported in Non Patent Literature 11 (Non Patent Literature 12). The microscopic scoring (scoring of histological damage) criteria for the colonic damage are as shown in the following (1) to (5) (Non Patent Literatures 8 to 10), and the total points in (1) to (5) are used as a score.
(1) Loss of mucosal structure (no loss of mucosal structure: 0 points and mild to severe loss of mucosal structure: 1 to 3 points)
(2) Cellular infiltration (no cellular infiltration: 0 points and mild to severe cellular infiltration: 1 to 3 points)
(3) Muscle thickening (no muscle thickening: 0 points and mild to severe muscle thickening: 1 to 3 points) (4) Crypt abscess (none: 0 points and present: 1 point)
(5) Reduction in goblet cells (not reduced: 0 points and reduced: 1 point) […]

Assay [4] deals with occludin. The experiment in a line: Occludin expression in colonic tissue (western blotting), DNBS-induced colitis model. To be noted: DNBS rats; 10 mg/kg oral.
Assay [5] deals with DNBS-induced colitis model. The assay is described as follows: Macroscopic damage score of colonic tissue in DNBS-induced colitis model. The conditions noted are these: DNBS rats, 6 days. On the procedure: as §1, §2
Evaluation was performed by scoring the macroscopic damage of the samples. As described above, colonic tissues that had been excised and washed with physiological saline were used as the samples.
The scoring was performed according to the criteria determined by making a minor amendment on the criteria reported in Non Patent Literature 11 (Non Patent Literature 12). […]
(4) Thickness (mm) of colonic tissue (colonic wall): 1 point was scored for 1 mm […]

Take `O=C1CC(=O)N(c2cccc(-c3noc(=S)[nH]3)c2)c2ccc3ccccc3c2N1.[Na]` [Compound A17, 5-[3-(5-thioxo-4H-[1,2,4]oxadiazol-3-yl)phenyl]-1H-naphtho[1,2-b][1,4]diazepine-2,4(3H,5H)-dione sodium salt]: the “caspase-1 expression in colon in which inflammation was induced” value in assay [1] is “cannot be decreased”. For the same compound, in assay [2], the “change in body weights” value is “increase in body weights” and the “spleen weights compared to DNBS-induced colitis model” value is given as “significantly decreased”. Besides, in assay [3], the “histological damage in colonic tissues compared to DNBS-induced colitis model” value is given as “not affected”. For the same compound, the “occludin expression in inflamed tissues compared to DNBS-induced colitis model” value in assay [4] is recorded as “increased”. In addition, in assay [5] (10 and 30 mg/kg oral), the “macroscopic damage scores compared to DNBS-induced colitis model” value was “significant decrease”.

Take `O=C1CC(=O)N(c2ccc(NC(=O)c3ccccc3I)cc2)c2ccc3ccccc3c2N1` [Compound B48, 5-[4-(2-iodobenzoylamino)phenyl]-1H-naphtho[1,2-b][1,4]diazepine-2,4(3H,5H)-dione]: the “caspase-1 expression in colon in which inflammation was induced” value in assay [1] was “decreased”. Besides, in assay [2], the “change in body weights” value was “increase in body weights” and the “spleen weights compared to DNBS-induced colitis model” value is given as “significantly decreased”. In addition, the “microscopic score compared to DNBS-induced colitis model” value in assay [3] (10 and 30 mg/kg oral) is recorded as “significant improvement”. The “histological damage in colonic tissues compared to DNBS-induced colitis model” value in assay [3] is recorded as “decreased in a dose-dependent manner”. Moreover, in assay [4], the “occludin expression in inflamed tissues compared to DNBS-induced colitis model” value was “increased”. Further, the “macroscopic damage scores compared to DNBS-induced colitis model” value in assay [5] (3, 10 and 30 mg/kg oral) is “significant decrease”.
